Reference: patent publication US20240158446A1, “CYCLIC COMPOUND HAVING SELECTIVE INHIBITORY ACTION ON KRAS OVER HRAS AND NRAS” (CHUGAI SEIYAKU KABUSHIKI KAISHA, priority 2021, published 2024)
Like-named read-outs stand apart in the source and are kept apart here.

What was measured:
[1] = molecular target: GDP-bound HRAS wild-type protein (Homo sapiens, UniProt P01112); experiment: Binding to HRAS by surface plasmon resonance (SPR), Single Cycle Kinetics; conditions: for HRAS/KRAS (ratio of KD value for HRAS to KD value for KRAS) / ratio of the KD value with respect to GDP-bound HRAS wild-type protein to the KD value with respect to KRAS: SPR; for HRAS/KRAS (ratio of KD value for HRAS to KD value for KRAS): GDP-bound HRAS wild-type protein vs GDP-bound KRAS wild-type protein; for HRAS/KRAS (ratio of KD value with respect to GDP-bound HRAS wild-type protein to KD value with respect to KRAS): SPR KD ratio HRAS/KRAS, class symbols
[2] = molecular target: GDP-bound NRAS wild-type protein (Homo sapiens, UniProt P01111); experiment: Binding to NRAS by surface plasmon resonance (SPR), Single Cycle Kinetics; conditions: for NRAS/KRAS (ratio of KD value for NRAS to KD value for KRAS) / ratio of the KD value with respect to GDP-bound NRAS wild-type protein to the KD value with respect to KRAS: SPR; for NRAS/KRAS (ratio of KD value for NRAS to KD value for KRAS): GDP-bound NRAS wild-type protein vs GDP-bound KRAS wild-type protein; for NRAS/KRAS (ratio of KD value with respect to GDP-bound NRAS wild-type protein to KD value with respect to KRAS): SPR KD ratio NRAS/KRAS, class symbols
[3] = tested on: human lung cancer strain NCI-H441;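 note: cell proliferation inhibition after four days measured by CellTiter-Glo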
[4] = molecular target: GDP-bound KRAS wild-type protein (Homo sapiens, UniProt P01116); experiment: Binding to KRAS by surface plasmon resonance (SPR), Single Cycle Kinetics
[5] = SPR, Single Cycle Kinetics, 1:1 binding model, GDP-bound KRAS wild-type protein, read-out: KRAS KD
[6] = SPR Single Cycle Kinetics, GDP-bound KRAS wild-type protein, 1:1 binding model, read-out: KRAS KD
[7] = read-out: NCI-H441 cell proliferation inhibitory activity, 50% proliferation inhibitory concentration (IC50 value), NCI-H441, four days, CellTiter-Glo
[8] = SPR, Single Cycle Kinetics, 1:1 binding model, read-out: KD value with respect to GDP-bound KRAS wild-type protein
[9] = SPR, Single Cycle Kinetics, GDP-bound KRAS wild-type protein, read-out: KRAS KD

Chain of GDP-bound NRAS wild-type protein (P01111 whole entry): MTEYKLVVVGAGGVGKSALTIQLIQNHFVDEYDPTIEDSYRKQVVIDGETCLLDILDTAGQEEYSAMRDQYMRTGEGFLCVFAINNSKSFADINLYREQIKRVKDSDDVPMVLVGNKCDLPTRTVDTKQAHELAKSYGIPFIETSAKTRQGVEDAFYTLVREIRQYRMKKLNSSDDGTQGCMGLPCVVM
Chain of GDP-bound KRAS wild-type protein (P01116 whole entry): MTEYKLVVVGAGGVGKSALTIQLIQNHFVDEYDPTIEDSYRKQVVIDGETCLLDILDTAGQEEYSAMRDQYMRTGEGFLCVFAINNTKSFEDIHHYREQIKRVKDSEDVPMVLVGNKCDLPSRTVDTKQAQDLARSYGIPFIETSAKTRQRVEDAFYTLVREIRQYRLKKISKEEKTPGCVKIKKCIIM
Chain of GDP-bound HRAS wild-type protein (P01112 whole entry): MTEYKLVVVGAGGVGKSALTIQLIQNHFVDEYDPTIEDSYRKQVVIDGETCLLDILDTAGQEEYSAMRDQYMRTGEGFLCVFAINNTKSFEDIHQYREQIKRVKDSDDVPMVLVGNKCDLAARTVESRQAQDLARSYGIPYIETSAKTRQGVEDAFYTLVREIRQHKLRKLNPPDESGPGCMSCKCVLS

## CCO[C@@H]1C[C@H]2C(=O)NC3(CCC3)C(=O)N(C)[C@@H](C(CC)CC)C(=O)N(C)[C@H](C(=O)N3CCOCC3)CC(=O)N(C)[C@@H](CC)C(=O)N[C@@H]([C@@H](C)CC)C(=O)N(C)CC(=O)N(C)[C@H]3C/C=C\CCN(C3=O)[C@@H](Cc3ccc(C(F)(F)F)cc3)C(=O)N(C)CC(=O)N[C@@H](CCc3cc(F)c(C(F)(F)F)c(F)c3)C(=O)N2C1 [PP1286]
[1]; KD ratio class
  HRAS/KRAS (ratio of KD value for HRAS to KD value for KRAS): A (a compound having 10 or more and less than 20 is denoted as A)
[2]; KD ratio class
  NRAS/KRAS (ratio of KD value for NRAS to KD value for KRAS): AA (a compound having 20 or more is denoted as AA)
[3]
  IC50: 58.8 nM
[4]; [5]
  Kd: 0.65 nM

## CCC[C@H]1C(=O)N[C@@H]([C@@H](C)CC)C(=O)N(C2CC2)CC(=O)N(C)[C@H]2C/C=C\CCN(C2=O)[C@@H](Cc2ccc(C)cc2)C(=O)N(C)CC(=O)N[C@@H](CCc2cc(F)c(C(F)(F)F)c(F)c2)C(=O)N2C[C@H](OCC)C[C@H]2C(=O)NC2(CC(C)(C)C2)C(=O)N(C)[C@@H](C(CC)CC)C(=O)N(C)[C@H](C(=O)N(C)C)CC(=O)N1C [PP2560]
[1]
  HRAS/KRAS (ratio of KD value with respect to GDP-bound HRAS wild-type protein to KD value with respect to KRAS): A (a compound having 10 or more and less than 20 is denoted as A)
[2]
  NRAS/KRAS (ratio of KD value with respect to GDP-bound NRAS wild-type protein to KD value with respect to KRAS): AA (a compound having 20 or more is denoted as AA)
[3]
  IC50: 46.3 nM
[4]; [6]
  Kd: 1 nM

## CCC[C@H]1C(=O)N[C@@H]([C@@H](C)CC)C(=O)N2CCC[C@H]2C(=O)N(C)[C@H]2C/C=C\CCN(C2=O)[C@@H](Cc2ccc(C)cc2)C(=O)N(C)CC(=O)N[C@@H](CCc2cc(F)c(C(F)(F)F)c(F)c2)C(=O)N2C[C@H](OCC)C[C@H]2C(=O)N(C)C2(CCC2)C(=O)N(C)[C@@H](C2CCCC2)C(=O)N(C)[C@H](C(=O)N2CCCCC2)CC(=O)N1C [PP3115, (1S,4S,10S,13S,17S,20S,26S,28R,32S,38S,42Z)-20-cyclopentyl-32-[2-[3,5-difluoro-4-(trifluoromethyl)phenyl]ethyl]-28-ethoxy-2,14,18,21,24,36-hexamethyl-10-[(1S)-1-methylpropyl]-17-(piperidine-1-carbonyl)-13-propyl-38-(p-tolylmethyl)spiro[2,8,11,14,18,21,24,30,33,36,39-undecazatetracyclo[37.5.1.0^4,8.0^26,30]pentatetracont-42-ene-23,1′-cyclobutane]-3,9,12,15,19,22,25,31,34,37,45-undecone]
[1]
  HRAS/KRAS (ratio of KD value for HRAS to KD value for KRAS): B (a compound having 3 or more and less than 10 is denoted as B)
  ratio of the KD value with respect to GDP-bound HRAS wild-type protein to the KD value with respect to KRAS: B (a compound having 3 or more and less than 10 is denoted as B)
[2]
  NRAS/KRAS (ratio of KD value for NRAS to KD value for KRAS): A (a compound having 10 or more and less than 20 is denoted as A)
  ratio of the KD value with respect to GDP-bound NRAS wild-type protein to the KD value with respect to KRAS: A (a compound having 10 or more and less than 20 is denoted as A)
[3]; [7]
  IC50: 5.7 nM
[4]; [8]
  Kd: 2.6 nM
[4]; [9]
  Kd: 2.6 nM

## CC[C@H](C)[C@@H]1NC(=O)[C@H](CC2CC2)N(C)C(=O)C[C@@H](C)N(C)C(=O)[C@H](C2CCCC2)N(C)C(=O)C2(CCC2)NC(=O)[C@H](CC(F)F)N(C)C(=O)[C@H](CCc2cc(F)c(C(F)(F)F)c(F)c2)NC(=O)CN(C)C(=O)[C@H](Cc2ccc(C(F)(F)F)cc2)N2CC/C=C\C[C@@H](C2=O)N(C)C(=O)CN(C)C1=O [PP1405]
[1]; KD ratio class
  HRAS/KRAS (ratio of KD value for HRAS to KD value for KRAS): A (a compound having 10 or more and less than 20 is denoted as A)
[2]; KD ratio class
  NRAS/KRAS (ratio of KD value for NRAS to KD value for KRAS): A (a compound having 10 or more and less than 20 is denoted as A)
[3]
  IC50: 466 nM
[4]; [5]
  Kd: 8.5 nM

## CCC[C@H]1C(=O)N[C@@H]([C@@H](C)CC)C(=O)N(C2CC2)CC(=O)N(C)[C@H]2C/C=C\CCN(C2=O)[C@@H](Cc2ccc(C(F)(F)F)cc2)C(=O)N(C)CC(=O)N[C@@H](CCc2ccc(C(F)(F)F)c(OC)c2)C(=O)N2C[C@H](OCC)C[C@H]2C(=O)N(C)C2(CCC2)C(=O)N(C)[C@@H](C2CCCC2)C(=O)N(C)[C@H](C(=O)N2CCCCC2)CC(=O)N1C [PP3095, (2S,8S,12R,14S,20S,23S,27S,30S,36S,38Z)-20-cyclopentyl-32-cyclopropyl-12-ethoxy-8-[2-[3-methoxy-4-(trifluoromethyl)phenyl]ethyl]-4,16,19,22,26,35-hexamethyl-30-[(1S)-1-methylpropyl]-23-(piperidine-1-carbonyl)-27-propyl-2-[[4-(trifluoromethyl)phenyl]methyl]spiro[1,4,7,10,16,19,22,26,29,32,35-undecazatricyclo[34.5.1.0^10,14]dotetracont-38-ene-17,1′-cyclobutane]-3,6,9,15,18,21,25,28,31,34,42-undecone]
[1]
  HRAS/KRAS (ratio of KD value for HRAS to KD value for KRAS): A (a compound having 10 or more and less than 20 is denoted as A)
  ratio of the KD value with respect to GDP-bound HRAS wild-type protein to the KD value with respect to KRAS: A (a compound having 10 or more and less than 20 is denoted as A)
[2]
  NRAS/KRAS (ratio of KD value for NRAS to KD value for KRAS): A (a compound having 10 or more and less than 20 is denoted as A)
  ratio of the KD value with respect to GDP-bound NRAS wild-type protein to the KD value with respect to KRAS: A (a compound having 10 or more and less than 20 is denoted as A)
[3]; [7]
  IC50: 33.7 nM
[4]; [8]
  Kd: 0.67 nM
[4]; [9]
  Kd: 0.67 nM

## CCC[C@H]1C(=O)N[C@@H]([C@@H](C)CC)C(=O)N(C2CC2)CC(=O)N(C)[C@H]2C/C=C\CCN(C2=O)[C@@H](Cc2ccc(C)cc2)C(=O)N(C)CC(=O)N[C@@H](CCc2ccc(Cl)c(Cl)c2)C(=O)N2C[C@H](OCC)C[C@H]2C(=O)NC2(CC(C)(C)C2)C(=O)N(C)[C@@H](C2CCCC2)C(=O)N(C)[C@H](C(=O)N(C)C)CC(=O)N1C [PP2559]
[1]
  HRAS/KRAS (ratio of KD value with respect to GDP-bound HRAS wild-type protein to KD value with respect to KRAS): A (a compound having 10 or more and less than 20 is denoted as A)
[2]
  NRAS/KRAS (ratio of KD value with respect to GDP-bound NRAS wild-type protein to KD value with respect to KRAS): A (a compound having 10 or more and less than 20 is denoted as A)
[3]
  IC50: 103 nM
[4]; [6]
  Kd: 0.91 nM

## CC[C@H](C)[C@@H]1NC(=O)[C@H](CC2CC2)N(C)C(=O)C[C@@H](C(=O)N2CCOCC2)N(C)C(=O)[C@H](C2CCCC2)N(C)C(=O)C2(CCC2)NC(=O)[C@@H]2CCCN2C(=O)[C@H](CCc2ccc(C(F)(F)F)c(Cl)c2)NC(=O)CN(C)C(=O)[C@H](Cc2ccc(C(F)(F)F)cc2)N2C[C@H](C)CC[C@@H](C2=O)N(C)C(=O)CN(C)C1=O [PP1344]
[1]; KD ratio class
  HRAS/KRAS (ratio of KD value for HRAS to KD value for KRAS): B (a compound having 3 or more and less than 10 is denoted as B)
[2]; KD ratio class
  NRAS/KRAS (ratio of KD value for NRAS to KD value for KRAS): B (a compound having 3 or more and less than 10 is denoted as B)
[3]
  IC50: 16.7 nM
[4]; [5]
  Kd: 0.14 nM

## CCCOC[C@H]1C(=O)N[C@@H]([C@@H](C)CC)C(=O)N(C)CC(=O)N(C)[C@H]2C/C=C\CCN(C2=O)[C@@H](CC2CCCCC2)C(=O)N(C)CC(=O)N[C@@H](CCc2cc(F)c(C(F)(F)F)c(F)c2)C(=O)N2C[C@H](OCC)C[C@H]2C(=O)NC2(CC(C)(C)C2)C(=O)N(C)[C@@H](C(CC)CC)C(=O)N(C)[C@H](C(=O)N(C)C)CC(=O)N1C [PP2501]
[1]
  HRAS/KRAS (ratio of KD value for HRAS to KD value for KRAS): A (a compound having 10 or more and less than 20 is denoted as A)
[2]
  NRAS/KRAS (ratio of KD value for NRAS to KD value for KRAS): AA (a compound having 20 or more is denoted as AA)
[3]
  IC50: 180 nM
[4]; [9]
  Kd: 1.8 nM

## CCCOC[C@H]1C(=O)N[C@@H]([C@@H](C)CC)C(=O)N(C)CC(=O)N(C)[C@H]2C/C=C\CCN(C2=O)[C@@H](CC2CCC(F)(F)CC2)C(=O)N(C)CC(=O)N[C@@H](CCc2cc(F)c(C(F)(F)F)c(F)c2)C(=O)N2C[C@@H](C)C[C@H]2C(=O)NC2(CC(C)(C)C2)C(=O)N(C)[C@@H](C(CC)CC)C(=O)N(C)[C@H](C(=O)N(C)C)CC(=O)N1C [PP2490]
[1]
  HRAS/KRAS (ratio of KD value for HRAS to KD value for KRAS): A (a compound having 10 or more and less than 20 is denoted as A)
[2]
  NRAS/KRAS (ratio of KD value for NRAS to KD value for KRAS): AA (a compound having 20 or more is denoted as AA)
[3]
  IC50: 162 nM
[4]; [9]
  Kd: 1.7 nM

## CCO[C@@H]1C[C@H]2C(=O)NC3(CCC3)C(=O)N(C)[C@@H](C3CCCC3)C(=O)N(C)[C@H](C(=O)N3CCCCC3)CC(=O)N(C)[C@@H](C)C(=O)N[C@@H]([C@@H](C)CC)C(=O)N(C)CC(=O)N(C)[C@H]3C/C=C\CCN(C3=O)[C@@H](Cc3ccc(C(F)(F)F)cc3)C(=O)N(C)CC(=O)N[C@@H](CCc3cc(F)c(C(F)(F)F)c(F)c3)C(=O)N2C1 [PP1292]
[1]; KD ratio class
  HRAS/KRAS (ratio of KD value for HRAS to KD value for KRAS): A (a compound having 10 or more and less than 20 is denoted as A)
[2]; KD ratio class
  NRAS/KRAS (ratio of KD value for NRAS to KD value for KRAS): A (a compound having 10 or more and less than 20 is denoted as A)
[3]
  IC50: 24.6 nM
[4]; [5]
  Kd: 0.16 nM
